Measured values as given in PMC10141580, “Cyclic Dichalcogenides Extend the Reach of Bioreductive Prodrugs to Harness Thiol/Disulfide Oxidoreductases: Applications to seco-Duocarmycins Targeting the Thioredoxin System” (ACS Central Science, 2023).
Where two headings read alike, the source gives them in different places.

Columns and labels:
HeLa-HRE cells = assay: Resazurin cytotoxicity assay, HeLa-HRE, 48 h; details: for IC50(HeLa)/IC50(A549): ratio HeLa vs A549
Description: (§1) We used A549 lung cancer and HeLa cervical cancer cell lines for initial screening of the prodrugs.
HeLa-HRE cells were treated with prodrugs of the
Dose -response curves were calculated from at least 27 incremental single concentrations over a
range of at least three log units.

Balb/c mice [1] = assay: Single-dose toxicity study; format: in vivo; details: week following treatment
Description: To test if low prodrug activation could enable in vivo use, we performed dosing and toxicity studies in Balb/c mice, comparing the toxicity and the tolerated dosing of low-reducible SS60-CBI-AZI or substantially reducible SeS60-CBI-AZI and to those of non-reducible carbamate O56-CBI-AZI. Single-dose toxicity was studied over the range 0.1–10 mg/kg.
Methods for in vivo animal studies
(§2) All in vivo studies were conducted as contract research together with React ionBiology Eur ope G mbH (Freiburg,
(§3) Germany), EPO – Experimental Pharmacology & Oncology GmbH (Berlin, Germany); Bient a/ Enam ine Lt d. (Kyiv,
(§4) Ukraine) and Leit at – Managing Technologies (Barcelona, Spain), adhering to the respective animal welfare
(§5) Mice were kept in individually ventilated cages at constant temperature (22±2 °C, air-conditioned) and humidity (45
(§6) – 65%), under optimum hygienic conditions with 10 – 15 air changes per hour. A cycle of 12 h artificial fluorescent
(§7) light ning and 12 h darkness was applied , and animal behavior was monitored daily throughout the studies. The
(§8) animals received food and water ad libit um.
(§9) To evaluate toxicity of selected compounds, dose level selection studies within dose range from 0.1 mg/kg to
10 mg/kg were performed by intravenous administration into Balb /c mice. […]
were monitored after each drug administration and three times per week for 21 consecutive days after the first […]

A549 cells = assay: Resazurin cytotoxicity assay, A549, 72 h; details: read-out: IC50(nM): A549
Description: as §1
Fi gure S9: Cell ular resazurin-based cytotoxi ci ty as s a y.
Dose -response curves were calculated from at least 27 incremental single concentrations over a range
of at least three log units. Individual experiments with annotated experiment numbers are shown for each prodrug

[2] = tested on: NCI-60 standardized human tumor cell line panel; assay: cells; format: cell-based; details: AZI sheet, read-out: GI50
mouse = assay: Tolerability for repeated dose administration in vivo (summary); details: repeated dose administration
Balb/c mice [3] = assay: Moderate repeated dosing tolerability study; format: in vivo
Description: Next, a moderate repeated dosing study in Balb/c mice (3 animals per group) tested the importance of solubilizing the prodrugs.
Methods for in vivo animal studies
as §2, §3, §4, §5, §6, §7, §8, §9
10 mg/kg were performed by intravenous administration into Balb /c mice. Each dose for each tested compound
was administered in one mouse.
changes and clinical signs of gross toxicity three tim es per week for 21 consecutive days of post-dosing period.
After the first week of observation without adverse events, two doses for each test compound were selected as
tolerated. These two doses were tested in two additional mice for confirmation of toler ability. Additional animals
consecutive days of post-dosing period. Toxicity of repeated administrations was tested wit h t hr ee repeat ed pr e-
selected doses at a dosing interval of 7 days. Mortality, body weight changes, and clinical signs of gross toxicity
were monitored after each drug administration and three times per week for 21 consecutive days after the first
compound administration. Bleed ing with subsequent hematological tests, clinical chemistry parameters analysis
(ALT, AST, ALP, LDH, creatine kinase, creatinine, urea, cholesterol, and triglycerides), and necropsy with
macroscopic inspection were performed on the terminal day of the repeated dosing-regime.
To test tolerability of selected compounds in vivo, female BALB/c mice were randomized by weight into seven
groups of t hree animals.

[4] = In vivo plasma pharmacokinetics; details: Balb/c mice, i.v. 5 mg/kg
Description: We first examined the in vivo pharmacokinetics of representative compound SS60-CBI-AZI in Balb/c mice after i.v. administration at 5 mg/kg (3 animals per time point, 4 time points from 5 to 90 min post injection).
as §5, §6, §7, §8
Pharm acokinetics o f SS60-CBI-AZI
Following single dose intravenous administration, levels of SS60-CBI-AZI in blood plasm a over t im e wer e
det ermined by HPLC-MS/MS. Treatm ent gr oups wer e three Balb/c mice (randomly assigned ) per t ime point (t otal:
Blood collection was performed from the orbital sinus in
microtainers containing K 2EDTA. All samples were immediately processed, flash -frozen and stored at -70 °C unt il
400 ng/mL in et hanol). After mixing by pipetting and centrifuging for 4 min at 6000 rpm, 2 μL of each supernatant
was injected into LC-MS/MS (Shimadzu LC: 2 isocratic pumps LC-10ADvp, autosampler SIL-20AC, sub-controller
FCV-14AH, degasser DGU-14 A; AB Sciex MS: API 3000 ( tr iple-quadrupole), ESI). The data acquisition and system […]

[5] = tested on: Balb/c mice with 4T1 tumors; assay: 4T1-bearing tolerability study; details: 10 mg/kg
Description: Finally, another large study intended for antitumor efficacy also had to be examined only in terms of tolerability.
(a,c, e, g, h): BxPC-3 subcutaneous xenograft in NMRi mice, 10 mice per group; ( b, d, f,i ,j): 4T1 murine breast cancer syngeneic orthotopic implant in Balb/c mice,
(a,b) Bodyweights (means); (c, d) absolute tumor volumes (medians); (e,f) tumor volumes relative to individual volumes at start of treatment (medians); (g,h,i ,j) absolute and relative tumor volumes at final day of study (datapoints with means and 95% confidence interval). All tumor measurements are in vivo caliper measurements. Dotted vertical lines indicate days of treatment. All CBI groups dosed at 3 mg/kg i. v., ca . 1 0 0 µL injection volume in vehicle (10:90 DMSO:saline).

4T1 murine breast cancer = assay: 4T1 orthotopic breast cancer efficacy study; format: in vivo; details: 4T1 in Balb/c mice; CBI prodrugs 3 mg/kg
Description: We then moved to in vivo anticancer efficacy trials of these prodrugs. […] As one model we chose the syngeneic murine breast cancer 4T1, implanted orthotopically (at the native tissue site) into the fat pad of immunocompetent Balb/c mice (i.e., offering a realistic immune system and tumor microenvironment). This model gives rapid, aggressive tumor growth.[52] As a second model, we chose to xenograft human BxPC-3 pancreatic adenocarcinoma cells into immunodeficient hosts. This is a slower-growing model, with low metastasis, that can be more resistant to traditional antimitotic therapy.[53],[54] Mice were implanted, randomized once tumors reached 100–150 mm^3 volume, and treated once or twice weekly with prodrug or control compounds typically at 3 mg/kg (8–12 animals per condition, Figure 10a). Tumors were measured by caliper during the assay and weighed at termination.
7. 2. in vivo efficacy mouse studies
4T1 efficacy study BxPC-3 efficacy study a Absolute tumour volumes b Absolute tumour volumes […]
days after tumor implantation days after tumor implantation c Relative tumour volumes d Relative tumour volumes […]
e RTV! fi"al day of followu# f ex viv tumour weights g RTV! fi"al day of followu# h ex viv tumour weights (. mice remain in all *roups) (for animals left at day 31)(all *roups have statistical power)(day "2/ all animals left) […]
vehicle(1x)(1x)(1x) (2x)(2x) […]
P-##"0-#$%-&'%P-!!"0-#$%-&'%P-!!"0-#$%-()%P-!!"0-#$%-&'% %rinotecan %rinotecan P-##"0-#$%-&'%P-!!"0-#$%-()%P-!!"0-#$%-&'%P-!!"0-#$%-&'% P-!!"0-#$%-&'% P-!!"0-#$%-&'% […]
i Body weights $ Body weights […]
implant in Balb/c mice, 8 mice per group; (b, d,g,h,j): BxPC-3 subcutaneous xenograft in NMRi mice, 8 mice per […]
treatment (m e d ia n); (e,g) in vivo caliper measurement of relative tum or volumes at final day of followup [last day when all mice in all groups remain in the study] […]
tumor weights at termination of study (only mice not terminated on ethical grounds before the indicated days were harvested); (i,j) Bodyweights (means).
(BxPC-3 study); dotted vertical lines indicate days of [potential] treatment.

Q: What does the source list for `O=C(c1cc2cc(OCCCN3CCC3)ccc2[nH]1)N1C[C@@H](CCl)c2c1cc(OCc1ccccc1)c1ccccc21` [OBn-CBI-AZI]?
A: IC50 (HeLa-HRE cells; initial screening, A549 and HeLa cell lines): > 1000 nM; IC50(HeLa)/IC50(A549) (HeLa-HRE cells): 1.8; IC50 (HeLa-HRE cells; read-out: IC50(nM): HeLa, HeLa, 48 h): 750 nM; outcome at 10 mg/kg single dose (Balb/c mice [1]): not lethal; IC50 (A549 cells): 420 nM; GI50 ([2]; 786-0): 270 nM; GI50 ([2]; A498): 380 nM; GI50 ([2]; A549/ATCC): 160 nM; GI50 ([2]; ACHN): 35 nM; GI50 ([2]; CAKI-1): 190 nM; GI50 ([2]; CCRF-CEM): 410 nM; GI50 ([2]; COLO 205): 280 nM; GI50 ([2]; EKVX): 370 nM; GI50 ([2]; HCC-2998): 320 nM; GI50 ([2]; HCT-15): 130 nM; GI50 ([2]; HCT-116): 640 nM; GI50 ([2]; HL-60(TB)): 440 nM; GI50 ([2]; HOP-62): 140 nM; GI50 ([2]; HOP-92): 500 nM; GI50 ([2]; HT29): 270 nM; GI50 ([2]; IGROV1): 190 nM; GI50 ([2]; K-562): 250 nM; GI50 ([2]; KM12): 810 nM; GI50 ([2]; LOX IMVI): 56 nM; GI50 ([2]; M14): 210 nM; GI50 ([2]; MALME-3M): 280 nM; GI50 ([2]; MDA-MB-231): 3070 nM; GI50 ([2]; MDA-MB-435): 330 nM; GI50 ([2]; MOLT-4): 270 nM; GI50 ([2]; NCI-H23): 73 nM; GI50 ([2]; NCI-H226): 210 nM; GI50 ([2]; NCI-H460): 17 nM; GI50 ([2]; NCI-H522): 380 nM; GI50 ([2]; OVCAR-3): 500 nM; GI50 ([2]; OVCAR-4): 540 nM; GI50 ([2]; OVCAR-5): 340 nM; GI50 ([2]; OVCAR-8): 240 nM; GI50 ([2]; RPMI-8226): 500 nM; GI50 ([2]; RXF 393): 230 nM; GI50 ([2]; SF-268): 330 nM; GI50 ([2]; SF-295): 46 nM; GI50 ([2]; SF-539): 290 nM; GI50 ([2]; SK-MEL-2): 370 nM; GI50 ([2]; SK-MEL-5): 270 nM; GI50 ([2]; SK-MEL-28): 330 nM; GI50 ([2]; SK-OV-3): 450 nM; GI50 ([2]; SN12C): 360 nM; GI50 ([2]; SNB-19): 330 nM; GI50 ([2]; SR): 44 nM; GI50 ([2]; SW-620): 260 nM; GI50 ([2]; TK-10): 560 nM; GI50 ([2]; U251): 61 nM; GI50 ([2]; UACC-62): 62 nM; GI50 ([2]; UACC-257): 390 nM; GI50 ([2]; UO-31): 260 nM

Q: Which IC50 (HeLa-HRE cells; Homo sapiens, HeLa, 48 h, read-out: IC50(nM): HeLa) does the source give for `CN(C(=O)Oc1cc2c(c3ccccc13)[C@H](CCl)CN2C(=O)c1cc2cc(OCCCN3CCC3)ccc2[nH]1)[C@H]1CCSSC1` [SS60-CBI-AZI] here?
A: 96 nM

Q: What about the “IC50(HeLa)/IC50(A549)” value (HeLa-HRE cells) of the same compound?
A: 0.8

Q: What about the IC50 (A549 cells; Homo sapiens) of the same compound?
A: 120 nM

Q: And the remarks (mouse)?
A: adverse effects

Q: What about the “outcome of repeated dosing at 3 mg/kg” value (Balb/c mice [3]; once weekly) of the same compound?
A: significant loss of body weight

Q: And the “outcome of repeated dosing at 1 mg/kg” value (Balb/c mice [3]; treated twice a week)?
A: tolerated

Q: What about the “released cargo in plasma” value [4] of the same compound?
A: no released HO-CBI-AZI, or activated cyclopropane, or adducts, were detected

Q: What about the half-life ([4]; mouse, plasma, iv, HPLC-MS/MS) of the same compound?
A: ~20 min

Q: Which “effect on tumor growth” value [5] does the source give for `CCc1c2c(nc3ccc(OC(=O)N4CCC(N5CCCCC5)CC4)cc13)-c1cc3c(c(=O)n1C2)COC(=O)[C@]3(O)CC` [irinotecan, reference compound] here?
A: failed to slow tumor growth

Q: And the “effect on tumor growth” value (4T1 murine breast cancer)?
A: expected tumor-slowing effect
